Measured values as given in US5530126A, “Process for the preparation of substituted 6-(pyrazol-3yl)-1,4-benzoxazin-3-ones” (Monsanto Company, priority 1994, dated 1996).

Assays:
Format in all cases: in vivo
Annual bluegrass [1] = test: Pre-emergence herbicide test; conditions: read-out: % plant inhibition (Anbg); for inhibition at 11210 g/ha: 11.21 kg/ha; for inhibition at 1120 g/ha: 1.12 kg/ha
In short: (§1)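 In this greenhouse test, seeds on compacted topsoil receive the active ingredient in an organic solvent or aqueous carrier, are covered with untreated soil and watered from below; percent inhibition is scored approximately 11 days later.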

Barnyardgrass [2] = test: Pre-emergence herbicide test; conditions: Echinochloa crus-galli, read-out: % plant inhibition (Bygr); for inhibition at 11210 g/ha: 11.21 kg/ha; for inhibition at 1120 g/ha: 1.12 kg/ha
In short: as §1

Cocklebur [3] = test: Pre-emergence herbicide test; conditions: Xanthium strumarium, read-out: % plant inhibition (Cobu); for inhibition at 11210 g/ha: 11.21 kg/ha; for inhibition at 1120 g/ha: 1.12 kg/ha
In short: as §1

Downy Brome [4] = test: Pre-emergence herbicide test; conditions: Bromus tectorum, read-out: % plant inhibition (Dobr); for inhibition at 11210 g/ha: 11.21 kg/ha; for inhibition at 1120 g/ha: 1.12 kg/ha
In short: as §1

Indian Mustard [5] = test: Pre-emergence herbicide test; conditions: Brassica juncea, read-out: % plant inhibition (Inmu); for inhibition at 11210 g/ha: 11.21 kg/ha; for inhibition at 1120 g/ha: 1.12 kg/ha
In short: as §1

Morningglory [6] = test: Pre-emergence herbicide test; conditions: Ipomoea, read-out: % plant inhibition (Mogl); for inhibition at 11210 g/ha: 11.21 kg/ha; for inhibition at 1120 g/ha: 1.12 kg/ha
In short: as §1

Seedling johnsongrass [7] = test: Pre-emergence herbicide test; conditions: Sorghum halepense, read-out: % plant inhibition (Sejg); for inhibition at 11210 g/ha: 11.21 kg/ha; for inhibition at 1120 g/ha: 1.12 kg/ha
In short: as §1

Velvetleaf [8] = test: Pre-emergence herbicide test; conditions: Abutilon theophrasti, read-out: % plant inhibition (Vele); for inhibition at 11210 g/ha: 11.21 kg/ha; for inhibition at 1120 g/ha: 1.12 kg/ha
In short: as §1

Wild buckwheat [9] = test: Pre-emergence herbicide test; conditions: Fallopia convolvulus, read-out: % plant inhibition (Wibw); for inhibition at 11210 g/ha: 11.21 kg/ha; for inhibition at 1120 g/ha: 1.12 kg/ha
In short: as §1

Yellow nutsedge [10] = test: Pre-emergence herbicide test; conditions: Cyperus, read-out: % plant inhibition (Yens); for inhibition at 11210 g/ha: 11.21 kg/ha; for inhibition at 1120 g/ha: 1.12 kg/ha
In short: as §1

Annual bluegrass [11] = test: Post-emergence herbicide test; conditions: read-out: % plant inhibition (Anbg); for inhibition at 11210 g/ha: 11.21 kg/ha; for inhibition at 1120 g/ha: 1.12 kg/ha
In short: (§2)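 Plants grown from seed or vegetative propagules in greenhouse soil pans were sprayed at two to three weeks of age by atomizer at 170.3 kPa, delivering 1870 L/Ha containing about 0.4% v/v emulsifier. Injury versus untreated controls was scored as percent inhibition at about 11 days, sometimes again near 25 days.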

Barnyardgrass [12] = test: Post-emergence herbicide test; conditions: Echinochloa crus-galli, read-out: % plant inhibition (Bygr); for inhibition at 11210 g/ha: 11.21 kg/ha; for inhibition at 1120 g/ha: 1.12 kg/ha
In short: as §2

Cocklebur [13] = test: Post-emergence herbicide test; conditions: Xanthium strumarium, read-out: % plant inhibition (Cobu); for inhibition at 11210 g/ha: 11.21 kg/ha; for inhibition at 1120 g/ha: 1.12 kg/ha
In short: as §2

Downy Brome [14] = test: Post-emergence herbicide test; conditions: Bromus tectorum, read-out: % plant inhibition (Dobr); for inhibition at 11210 g/ha: 11.21 kg/ha; for inhibition at 1120 g/ha: 1.12 kg/ha
In short: as §2

Indian Mustard [15] = test: Post-emergence herbicide test; conditions: Brassica juncea, read-out: % plant inhibition (Inmu); for inhibition at 11210 g/ha: 11.21 kg/ha; for inhibition at 1120 g/ha: 1.12 kg/ha
In short: as §2

Morningglory [16] = test: Post-emergence herbicide test; conditions: Ipomoea, read-out: % plant inhibition (Mogl); for inhibition at 11210 g/ha: 11.21 kg/ha; for inhibition at 1120 g/ha: 1.12 kg/ha
In short: as §2

Seedling johnsongrass [17] = test: Post-emergence herbicide test; conditions: Sorghum halepense, read-out: % plant inhibition (Sejg); for inhibition at 11210 g/ha: 11.21 kg/ha; for inhibition at 1120 g/ha: 1.12 kg/ha
In short: as §2

Velvetleaf [18] = test: Post-emergence herbicide test; conditions: Abutilon theophrasti, read-out: % plant inhibition (Vele); for inhibition at 11210 g/ha: 11.21 kg/ha; for inhibition at 1120 g/ha: 1.12 kg/ha
In short: as §2

Wild buckwheat [19] = test: Post-emergence herbicide test; conditions: Fallopia convolvulus, read-out: % plant inhibition (Wibw); for inhibition at 11210 g/ha: 11.21 kg/ha; for inhibition at 1120 g/ha: 1.12 kg/ha
In short: as §2

Yellow nutsedge [20] = test: Post-emergence herbicide test; conditions: Cyperus, read-out: % plant inhibition (Yens); for inhibition at 11210 g/ha: 11.21 kg/ha; for inhibition at 1120 g/ha: 1.12 kg/ha
In short: as §2

[21] = tested on: resistant broadleaf weeds such as pigweed, cocklebur, velvetleaf and hemp sesbania; test: Control of resistant broadleaf weeds in crops; conditions: in various crops such as corn, soybean and nuts and in forestry

Structure (SMILES): C#CCOc1cc(-c2nn(C)c(C(F)(F)F)c2Cl)c(F)cc1Cl [Compound 261, 4-Chloro-3-(4-chloro-2-fluoro-5-propargyl-oxyphenyl)-1-methyl-5-(trifluoromethyl)-1H-pyrazole]
- inhibition at 11210 g/ha (Annual bluegrass [1]): 100%
- inhibition at 11210 g/ha (Barnyardgrass [2]): 100%
- inhibition at 11210 g/ha (Cocklebur [3]): 100%
- inhibition at 11210 g/ha (Downy Brome [4]): 100%
- inhibition at 11210 g/ha (Indian Mustard [5]): 100%
- inhibition at 11210 g/ha (Morningglory [6]): 100%
- inhibition at 11210 g/ha (Seedling johnsongrass [7]): 100%
- inhibition at 11210 g/ha (Velvetleaf [8]): 100%
- inhibition at 11210 g/ha (Wild buckwheat [9]): 100%
- inhibition at 11210 g/ha (Yellow nutsedge [10]): 30%
- inhibition at 11210 g/ha (Annual bluegrass [11]): 100%
- inhibition at 11210 g/ha (Barnyardgrass [12]): 100%
- inhibition at 11210 g/ha (Cocklebur [13]): 100%
- inhibition at 11210 g/ha (Downy Brome [14]): 100%
- inhibition at 11210 g/ha (Indian Mustard [15]): 100%
- inhibition at 11210 g/ha (Morningglory [16]): 100%
- inhibition at 11210 g/ha (Seedling johnsongrass [17]): 100%
- inhibition at 11210 g/ha (Velvetleaf [18]): 100%
- inhibition at 11210 g/ha (Wild buckwheat [19]): 100%
- inhibition at 11210 g/ha (Yellow nutsedge [20]): 20%
- control of resistant broadleaf weeds [21]: outstanding control

Structure (SMILES): C#CCN1C(=O)COc2cc(F)c(-c3nn(C)c(C(F)(F)F)c3Cl)cc21 [Compound 446, 6-(4-Chloro-1-methyl-5-(trifluoromethyl)-1H-pyrazol-3-yl)-7-fluoro-4-(2-propynyl)-2H-1,4-benzoxazin-3-(4H)-one]
- inhibition at 1120 g/ha (Annual bluegrass [1]): 100%
- inhibition at 1120 g/ha (Barnyardgrass [2]): 80%
- inhibition at 1120 g/ha (Cocklebur [3]): 100%
- inhibition at 1120 g/ha (Downy Brome [4]): 90%
- inhibition at 1120 g/ha (Indian Mustard [5]): 100%
- inhibition at 1120 g/ha (Morningglory [6]): 100%
- inhibition at 1120 g/ha (Seedling johnsongrass [7]): 80%
- inhibition at 1120 g/ha (Velvetleaf [8]): 90%
- inhibition at 1120 g/ha (Wild buckwheat [9]): 100%
- inhibition at 1120 g/ha (Yellow nutsedge [10]): 60%
- inhibition at 1120 g/ha (Annual bluegrass [11]): 100%
- inhibition at 1120 g/ha (Barnyardgrass [12]): 100%
- inhibition at 1120 g/ha (Cocklebur [13]): 100%
- inhibition at 1120 g/ha (Downy Brome [14]): 100%
- inhibition at 1120 g/ha (Indian Mustard [15]): 100%
- inhibition at 1120 g/ha (Morningglory [16]): 100%
- inhibition at 1120 g/ha (Seedling johnsongrass [17]): 90%
- inhibition at 1120 g/ha (Velvetleaf [18]): 100%
- inhibition at 1120 g/ha (Wild buckwheat [19]): 100%
- inhibition at 1120 g/ha (Yellow nutsedge [20]): 40%
- control of resistant broadleaf weeds [21]: outstanding control

Structure (SMILES): Cn1nc(-c2cc(OCc3ccccn3)c(Cl)cc2F)c(Cl)c1C(F)(F)F [Compound 251]
- inhibition at 1120 g/ha (Annual bluegrass [1]): 50%
- inhibition at 1120 g/ha (Barnyardgrass [2]): 0%
- inhibition at 1120 g/ha (Cocklebur [3]): 30%
- inhibition at 1120 g/ha (Downy Brome [4]): 80%
- inhibition at 1120 g/ha (Indian Mustard [5]): 20%
- inhibition at 1120 g/ha (Morningglory [6]): 40%
- inhibition at 1120 g/ha (Seedling johnsongrass [7]): 70%
- inhibition at 1120 g/ha (Velvetleaf [8]): 60%
- inhibition at 1120 g/ha (Wild buckwheat [9]): 90%
- inhibition at 1120 g/ha (Yellow nutsedge [10]): 0%
- inhibition at 1120 g/ha (Annual bluegrass [11]): 80%
- inhibition at 1120 g/ha (Barnyardgrass [12]): 90%
- inhibition at 1120 g/ha (Cocklebur [13]): 90%
- inhibition at 1120 g/ha (Downy Brome [14]): 100%
- inhibition at 1120 g/ha (Indian Mustard [15]): 70%
- inhibition at 1120 g/ha (Morningglory [16]): 100%
- inhibition at 1120 g/ha (Seedling johnsongrass [17]): 100%
- inhibition at 1120 g/ha (Velvetleaf [18]): 100%
- inhibition at 1120 g/ha (Wild buckwheat [19]): 90%
- inhibition at 1120 g/ha (Yellow nutsedge [20]): 10%

Structure (SMILES): COc1cc(F)c(-c2c(Cl)c(C(F)(F)F)nn2C)cc1F [Compound 71]
- inhibition at 11210 g/ha (Annual bluegrass [1]): 90%
- inhibition at 11210 g/ha (Barnyardgrass [2]): 0%
- inhibition at 11210 g/ha (Cocklebur [3]): 0%
- inhibition at 11210 g/ha (Downy Brome [4]): 10%
- inhibition at 11210 g/ha (Indian Mustard [5]): 30%
- inhibition at 11210 g/ha (Morningglory [6]): 30%
- inhibition at 11210 g/ha (Seedling johnsongrass [7]): 40%
- inhibition at 11210 g/ha (Velvetleaf [8]): 60%
- inhibition at 11210 g/ha (Wild buckwheat [9]): 70%
- inhibition at 11210 g/ha (Yellow nutsedge [10]): 0%
- inhibition at 11210 g/ha (Annual bluegrass [11]): 0%
- inhibition at 11210 g/ha (Barnyardgrass [12]): 0%
- inhibition at 11210 g/ha (Cocklebur [13]): 30%
- inhibition at 11210 g/ha (Downy Brome [14]): 0%
- inhibition at 11210 g/ha (Indian Mustard [15]): 20%
- inhibition at 11210 g/ha (Morningglory [16]): 20%
- inhibition at 11210 g/ha (Seedling johnsongrass [17]): 0%
- inhibition at 11210 g/ha (Velvetleaf [18]): 20%
- inhibition at 11210 g/ha (Wild buckwheat [19]): 40%
- inhibition at 11210 g/ha (Yellow nutsedge [20]): 0%
